Laboratory results as given in US11111259B2, “Acylsulfonamide derivatives for treating senescence-associated diseases and disorders” (Unity Biotechnology, Inc., priority 2015, dated 2021).
pEC50, pKd: −log10 of the molar value.

Experiments:
BCL-xL = BCL-xL (Homo sapiens, UniProt Q07817); assay: BCL-binding assay (AlphaLISA competition, BAD peptide); details: 6xHis BCL-xL with biotinylated BAD peptide, 24 hr incubation
Procedure: (§1) Compounds were prepared as 400× DMSO stock solutions in a 1:4 dilution series then diluted […] in assay buffer (25 mM HEPES pH 7.5, 100 mM NaCl, 0.1% BSA, 0.005% Tween) immediately before use. Aliquots of 400 nM 6xHis-tagged BCL-xL, BCL-2, and BCL-w were thawed on ice and diluted to 0.4 (BCL-XL) or 0.8 (BCL-W and 2) nM in assay buffer. Aliquots of biotinylated BIM and BAD peptides were diluted in assay buffer to 120 and 60 nM respectively. Ten microliters of biotinylated peptide were added to wells of a 96-well PCR plate, followed by ten microliters of inhibitor, then ten microliters of BCL protein, BCL-XL with BAD and BCL-W/2 with BIM. The plates were sealed and incubated at room temperature. After 24 hr, 0.16 μg Anti-His conjugated AlphaLISA acceptor beads were added in 5 μL assay buffer. After one hour at room temperature, 0.16 μg AlphaScreen streptavidin donor beads were added in 5 μL assay buffer and plates were incubated an additional 30 min in the dark. Two 17 μL aliquots of each reaction were plated in a Perkin Elmer 384-well proxiplate, and plates were scanned for using a Perkin Elmer Enspire plate reader. Kd values were calculated in Prism Graph Pad using a one site competitive binding model and previously determined Kd values for each protein peptide pair. […]

BCL-2 = BCL-2 (Homo sapiens, UniProt P10415); assay: BCL-binding assay (AlphaLISA competition, BIM peptide); details: 6xHis BCL-2 with biotinylated BIM peptide, 24 hr incubation
Procedure: as §1

BCL-w = molecular target: T1, BCL-w (Homo sapiens, UniProt Q92843); assay: as above; details: 6xHis BCL-w with biotinylated BIM peptide, 24 hr incubation
T1 sequence (Q92843 1-193): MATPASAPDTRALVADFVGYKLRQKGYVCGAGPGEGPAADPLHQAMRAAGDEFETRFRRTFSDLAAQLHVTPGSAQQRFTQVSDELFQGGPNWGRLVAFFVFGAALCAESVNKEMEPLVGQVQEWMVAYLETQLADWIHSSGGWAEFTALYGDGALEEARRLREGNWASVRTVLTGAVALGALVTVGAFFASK
Procedure: as §1

[1] = tested on: IMR-90 SnC (irradiated senescent IMR90 cells); assay: Senolysis assay (CellTiter-Glo viability); type: cell-based, human; details: for pEC50: Homo sapiens, IMR-90, light or radiation study, 72 h, X-ray irradiated senescent IMR90 cells, viability three days after compound addition; for SI (ratio of EC50 of non-senescent cells to EC50 of senescent cells): IMR90 non-senescent vs senescent cells
Procedure: IMR90 cells are maintained in DMEM supplemented with 10% FBS. To prepare a senescent population, cells were trypsinized, diluted to 50,000 per mL, and irradiated with 10-15 Gy of X-ray irradiation. Irradiated cells were plated at 5000 cells per well in one third of a 96-well plate and maintained for two weeks prior to the assay. Four days prior to the assay, non-senescent IMR90s were plated at 2500 per well in the second third of the plate. One day prior to the assay, 2500 non-senescent cells were plated in the final third of the plate. Compounds were prepared as a 200×DMSO dilution series then diluted to 1× in media immediately before adding to cells. Three days after compound addition, cell viability was measured using CellTiter-Glo reagent from Promega. Viability was calculated relative to a DMSO control and EC50 values are calculated in Prism GraphPad. […] The selectivity (SI) of the compounds described herein is a ratio of the EC50 of non-senescent cells to the EC50 of senescent cells. The SI of the compounds described herein is 10 or above for “A” selectivity, between 2 and 10 for “B” selectivity or 2 or less for “C” selectivity.

Sequence of BCL-2 (P10415 whole entry, species assumed): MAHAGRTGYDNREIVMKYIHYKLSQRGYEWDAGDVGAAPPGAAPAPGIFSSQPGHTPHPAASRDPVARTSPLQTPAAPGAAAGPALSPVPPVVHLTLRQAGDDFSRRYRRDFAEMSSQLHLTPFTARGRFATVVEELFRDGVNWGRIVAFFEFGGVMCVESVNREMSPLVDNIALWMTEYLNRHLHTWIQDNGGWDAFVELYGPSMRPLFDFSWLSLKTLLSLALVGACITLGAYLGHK
Sequence of BCL-xL (Q07817 whole entry, species assumed): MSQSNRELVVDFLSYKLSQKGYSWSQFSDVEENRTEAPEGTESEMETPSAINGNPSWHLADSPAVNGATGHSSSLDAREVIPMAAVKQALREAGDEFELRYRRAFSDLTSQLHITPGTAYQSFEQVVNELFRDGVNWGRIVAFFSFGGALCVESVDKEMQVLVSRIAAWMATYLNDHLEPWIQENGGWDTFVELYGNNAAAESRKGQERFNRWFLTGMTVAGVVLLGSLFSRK

| SMILES | pKd (BCL-xL) | pKd (BCL-2) | pKd (BCL-w) | pEC50 [1] | SI (ratio of EC50 of non-senescent cells to EC50 of senescent cells) [1] |
| --- | --- | --- | --- | --- | --- |
| CC1(C)CCC(c2ccc(Cl)cc2)=C(CN2CCN(c3ccc(C(=O)NS(=O)(=O)c4ccc(N[C@H](CCN5CCN(CCCP(=O)(O)O)CC5)CSc5ccccc5)c(S(=O)(=O)C(F)(F)F)c4)cc3)CC2)C1 [Compound 32] | > 9.00 | > 9.00 | 7.30 to 8.00 | < 5.00 | – |
| CCOP(=O)(CCN1CCN(CC[C@H](CSc2ccccc2)Nc2ccc(S(=O)(=O)NC(=O)c3ccc(N4CCN(CC5=C(c6ccc(Cl)cc6)CCC(C)(C)C5)CC4)cc3)cc2S(=O)(=O)C(F)(F)F)CC1)OCC [Compound 9] | > 9.00 | > 9.00 | 8.00 to 9.00 | > 6.00 | A (10 or above) |
| CCOP(=O)(CCN(C)CC[C@H](CSc1ccccc1)Nc1ccc(S(=O)(=O)NC(=O)c2ccc(N3CCN(CC4=C(c5ccc(Cl)cc5)CCC(C)(C)C4)CC3)cc2)cc1S(=O)(=O)C(F)(F)F)OCC [Compound 10] | > 9.00 | > 9.00 | 8.00 to 9.00 | 5.00 to 6.00 | A (10 or above) |
| CCOP(=O)(CCN1CCN(CC[C@H](CSc2ccccc2)Nc2ccc(S(=O)(=O)NC(=O)c3ccc(N4CCN(CC5=C(c6ccc(Cl)cc6)CCC(C)(C)C5)CC4)cc3)cc2S(=O)(=O)C(F)(F)F)CC1)OCOC(=O)C(C)(C)C (stereo partly shown) [Compound 38] | > 9.00 | > 9.00 | 7.30 to 8.00 | 5.00 to 6.00 | A (10 or above) |
| CCOP(=O)(CCCN1CCN(CC[C@H](CSc2ccccc2)Nc2ccc(S(=O)(=O)NC(=O)c3ccc(N4CCN(CC5=C(c6ccc(Cl)cc6)CCC(C)(C)C5)CC4)cc3)cc2S(=O)(=O)C(F)(F)F)CC1)OCOC(C)=O (stereo partly shown) [Compound 37] | > 9.00 | > 9.00 | 8.00 to 9.00 | 5.00 to 6.00 | B (between 2 and 10) |
| CCOP(=O)(O)CCCN1CCN(CC[C@H](CSc2ccccc2)Nc2ccc(S(=O)(=O)NC(=O)c3ccc(N4CCN(CC5=C(c6ccc(Cl)cc6)CCC(C)(C)C5)CC4)cc3)cc2S(=O)(=O)C(F)(F)F)CC1 [Compound 31] | > 9.00 | > 9.00 | 8.00 to 9.00 | < 5.00 | – |
| CCOP(=O)(CN1CCN(CC[C@H](C[S+]([O-])c2ccccc2)Nc2ccc(S(=O)(=O)NC(=O)c3ccc(N4CCN(CC5=C(c6ccc(Cl)cc6)CCC(C)(C)C5)CC4)cc3)cc2S(=O)(=O)C(F)(F)F)CC1)OCC (stereo partly drawn) [Compound 44, Diethyl ((4-((3R)-3-((4-(N-(4-(4-((4′-chloro-4,4-dimethyl-3,4,5,6-tetrahydro-[1,1′-biphenyl]-2-yl)methyl)piperazin-1-yl)benzoyl)sulfamoyl)-2-((trifluoromethyl)sulfonyl)phenyl)amino)-4-(phenylsulfinyl)butyl)piperazin-1-yl)methyl)phosphonate] | > 9.00 | > 9.00 | 7.30 to 8.00 | 5.00 to 6.00 | B (between 2 and 10) |
| CCOP(=O)(CN1CCN(CC[C@H](CSc2ccccc2)Nc2ccc(S(=O)(=O)NC(=O)c3ccc(N4CCN(CC5=C(c6ccc(Cl)cc6)CCC(C)(C)C5)CC4)cc3)cc2S(=O)(=O)C(F)(F)F)CC1)OCC [Compound 6] | > 9.00 | > 9.00 | 8.00 to 9.00 | > 6.00 | A (10 or above) |
| CCOP(=O)(CCCN1CCN(CC[C@H](CSc2ccccc2)Nc2ccc(S(=O)(=O)NC(=O)c3ccc(N4CCN(CC5=C(c6ccc(Cl)cc6)CCC(C)(C)C5)CC4)cc3)cc2S(=O)(=O)C(F)(F)F)CC1)OCOC(=O)OC(C)C (stereo partly shown) [Compound 36] | > 9.00 | > 9.00 | 7.30 to 8.00 | 5.00 to 6.00 | B (between 2 and 10) |
| CC1(C)CCC(c2ccc(Cl)cc2)=C(CN2CCN(c3ccc(C(=O)NS(=O)(=O)c4ccc(N[C@H](CCN5CCC(CP(=O)(O)O)CC5)CSc5ccccc5)c(S(=O)(=O)C(F)(F)F)c4)cc3)CC2)C1 [Compound 47] | > 9.00 | > 9.00 | 8.00 to 9.00 | < 5.00 | – |
| CC1(C)CCC(c2ccc(Cl)cc2)=C(CN2CCN(c3ccc(C(=O)NS(=O)(=O)c4ccc(N[C@H](CCN5CCN(CCP(=O)(O)OCOC(=O)C(C)(C)C)CC5)CSc5ccccc5)c(S(=O)(=O)C(F)(F)F)c4)cc3)CC2)C1 [Compound 45, (((2-(4-((R)-3-((4-(N-(4-(4-((4′-chloro-4,4-dimethyl-3,4,5,6-tetrahydro-[1,1′-biphenyl]-2-yl)methyl)piperazin-1-yl)benzoyl)sulfamoyl)-2-((trifluoromethyl)sulfonyl)phenyl)amino)-4-(phenylthio)butyl)piperazin-1-yl)ethyl)(hydroxy)phosphoryl)oxy)methyl pivalate] | > 9.00 | > 9.00 | 8.00 to 9.00 | < 5.00 | – |
| CC1(C)CCC(c2ccc(Cl)cc2)=C(CN2CCN(c3ccc(C(=O)NS(=O)(=O)c4ccc(N[C@H](CCN5CCN(CCP(=O)(OCOC(=O)C(C)(C)C)OCOC(=O)C(C)(C)C)CC5)CSc5ccccc5)c(S(=O)(=O)C(F)(F)F)c4)cc3)CC2)C1 [Compound 43, (R)-(((2-(4-(3-((4-(N-(4-(4-((4′-chloro-4,4-dimethyl-3,4,5,6-tetrahydro-[1,1′-biphenyl]-2-yl)methyl)piperazin-1-yl)benzoyl)sulfamoyl)-2-((trifluoromethyl)sulfonyl)phenyl)amino)-4-(phenylthio)butyl)piperazin-1-yl)ethyl)phosphoryl)bis(oxy))bis(methylene) bis(2,2-dimethylpropanoate)] | 8.00 to 9.00 | > 9.00 | 7.30 to 8.00 | < 5.00 | – |
| CCOP(=O)(CN1CCN(CC[C@H](CSc2ccccc2)Nc2ccc(S(=O)(=O)NC(=O)c3ccc(N4CCN(Cc5ccccc5-c5ccc(Cl)cc5)CC4)cc3)cc2S(=O)(=O)C(F)(F)F)CC1)OCOC(=O)OC(C)C (stereo partly drawn) [Compound 56, (((4-((R)-3-((4-(N-(4-(4-((4′-chloro-[1,1′-biphenyl]-2-yl)methyl)piperazin-1-yl)benzoyl)sulfamoyl)-2-((trifluoromethyl)sulfonyl)phenyl)amino)-4-(phenylthio)butyl)piperazin-1-yl)methyl)(ethoxy)phosphoryl)oxy)methyl isopropyl carbonate] | > 9.00 | > 9.00 | 8.00 to 9.00 | < 5.00 | – |
| CC1(C)CCC(c2ccc(Cl)cc2)=C(CN2CCN(c3ccc(C(=O)NS(=O)(=O)c4ccc(N[C@H](CCN5CCC(CP(=O)(OCOC(=O)C(C)(C)C)OCOC(=O)C(C)(C)C)CC5)CSc5ccccc5)c(S(=O)(=O)C(F)(F)F)c4)cc3)CC2)C1 [Compound 46] | 8.00 to 9.00 | 8.00 to 9.00 | < 7.30 | < 5.00 | – |
| CC(C)OP(=O)(CN1CCN(CC[C@H](CSc2ccccc2)Nc2ccc(S(=O)(=O)NC(=O)c3ccc(N4CCN(CC5=C(c6ccc(Cl)cc6)CCC(C)(C)C5)CC4)cc3)cc2S(=O)(=O)C(F)(F)F)CC1)OC(C)C [Compound 15] | > 9.00 | > 9.00 | 7.30 to 8.00 | 5.00 to 6.00 | B (between 2 and 10) |
| CCOP(=O)(CN1CCN(CC[C@H](CSc2ccccc2)Nc2ccc(S(=O)(=O)NC(=O)c3ccc(N4CCN(Cc5ccccc5-c5ccc(Cl)cc5)CC4)cc3)cc2S(=O)(=O)C(F)(F)F)CC1)OCC [Compound 51, Diethyl (R)-((4-(3-((4-(N-(4-(4-((4′-chloro-[1,1′-biphenyl]-2-yl)methyl)piperazin-1-yl)benzoyl)sulfamoyl)-2-((trifluoromethyl)sulfonyl)phenyl)amino)-4-(phenylthio)butyl)piperazin-1-yl)methyl)phosphonate] | > 9.00 | > 9.00 | 8.00 to 9.00 | 5.00 to 6.00 | B (between 2 and 10) |
